Consider twelve compounds from publication PMC8942502 (Journal of Enzyme Inhibition and Medicinal Chemistry, 2022).

In data set [1] the test system is U937 cells. Put plainly: MTT cell viability assay. The format is cell-based. Conditions: 0.1-50 μM, 48 and 72 h. As for the experimental part:
(§1) The tested compounds have been dissolved in DMSO at […] as stock concentration. All compounds have been tested at 10 μM and 50 μM as final concentrations for WB analysis. All compounds have been used at 0.1 μM, 5 μM, 10 μM, 25 μM, 50 μM as final concentration for proliferation assays. ORY-1001 (Selleck Catalog No. S7795) was used as reference compound at the concentration of 25 μM.
(§2) Cell culture LNCaP and U937 were purchased from ATCC (Milan, Italy). LNCaP were grown in Roswell Park Memorial Institute culture medium (RPMI; EuroClone, Milan, Italy), supplemented with 10% heat-inactivated foetal bovine serum (FBS; Sigma-Aldrich, Schnellendorf, Germany), antimicrobials (100 U/mL penicillin, 100 µg/mL streptomycin, 250 ng/mL amphotericin-B), 2 mM L-glutamine (EuroClone, Milan, Italy), and 1% essential amino acids solution (MEM; EuroClone, Milan, Italy). U937 were cultured in Dulbecco’s Modified Eagle Medium (DMEM; EuroClone, Milan, Italy), supplemented with 10% heat-inactivated foetal bovine serum (FBS; Sigma-Aldrich, Schnellendorf, Germany), antimicrobials (100 U/mL penicillin, 100 µg/mL streptomycin, 250 ng/mL amphotericin-B), 2 mM L-glutamine (EuroClone). Cells have grown in standard incubator conditions at 37 °C and 5% CO2.
(§3) Cell viability was determined on LNCaP and U937 cell lines using Thiazolyl Blue Tetrazolium Bromide [3-(4,5-dimethylthiazol-2-yl)-2,5-diphenyltetrazolium bromide] (MTT; Sigma-Aldrich, Schnellendorf, Germany) assay, following manufacturer’s instructions. A total of 5 × 10^3 cells/well were plated in a 96-well plate and treated, in duplicates, and repeated for three times, with the tested compounds at different concentrations 0.1 μM, 5 μM, 10 μM, 25 μM, 50 μM as final concentrations for 48 h, and 72 h. […] Absorbance was read at a wavelength of 570 nm with a TECAN M − 200 reader (Tecan, Männedorf, Switzerland).

The subject of data set [2] is LNCaP cells. In words: MTT cell viability assay. The format is cell-based. The note with it: Homo sapiens. As for the experimental part: as §1, §2, §3
In general terms: Tetrazolium assays rely on reduction of a dye to a coloured formazan, in cell work by metabolically active cells.

Data set [3] deals with T1, hMAO-B (Homo sapiens, UniProt P27338).
T1 construct: purchased Sigma-Aldrich
T1 sequence (P27338 1-520): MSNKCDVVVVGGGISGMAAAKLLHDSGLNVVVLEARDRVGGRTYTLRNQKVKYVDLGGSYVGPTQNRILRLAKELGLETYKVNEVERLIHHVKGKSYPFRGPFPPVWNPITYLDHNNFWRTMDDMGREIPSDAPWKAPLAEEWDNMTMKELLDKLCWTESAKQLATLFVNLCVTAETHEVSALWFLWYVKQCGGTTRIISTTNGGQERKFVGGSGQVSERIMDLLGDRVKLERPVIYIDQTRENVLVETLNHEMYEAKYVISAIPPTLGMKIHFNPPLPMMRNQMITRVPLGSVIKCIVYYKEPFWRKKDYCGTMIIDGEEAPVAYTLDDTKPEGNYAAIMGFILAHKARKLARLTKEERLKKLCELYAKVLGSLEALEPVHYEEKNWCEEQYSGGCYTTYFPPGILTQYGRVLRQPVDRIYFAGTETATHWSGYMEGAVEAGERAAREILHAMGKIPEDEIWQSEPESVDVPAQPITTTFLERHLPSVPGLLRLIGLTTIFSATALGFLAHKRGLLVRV
In words: Anti-MAO assay (Amplex Red, p-tyramine). Format: biochemical. The note with it: mean ± SD, n = 3.

Data set [4] concerns the target T2, LSD1-CoREST complex (Homo sapiens, UniProt O60341).
T2 construct: made in house; host or cells: Escherichia coli
Put plainly: LSD1-CoREST inhibition assay (Amplex UltraRed/HRP, H3K4 peptide). The format is biochemical. Conditions: for IC50: mean ± SD from two experiments in duplicate, 10 min preincubation; for fold drop of anti-LSD1 potency compared with phenyl analogue: para compounds vs 1a, meta compound vs 1b.

Data set [5] deals with LSD1-CoREST complex. Described as above. Format: biochemical, human. The note with it: for LSD1 selectivity vs MAO-A: IC50 MAO-A/IC50 LSD1; for LSD1 selectivity vs MAO-B: IC50 MAO-B/IC50 LSD1.
In data set [6] the target is T3, hMAO-A (Homo sapiens, UniProt P21397).
T3 construct: purchased Sigma-Aldrich
T3 sequence (P21397 1-527): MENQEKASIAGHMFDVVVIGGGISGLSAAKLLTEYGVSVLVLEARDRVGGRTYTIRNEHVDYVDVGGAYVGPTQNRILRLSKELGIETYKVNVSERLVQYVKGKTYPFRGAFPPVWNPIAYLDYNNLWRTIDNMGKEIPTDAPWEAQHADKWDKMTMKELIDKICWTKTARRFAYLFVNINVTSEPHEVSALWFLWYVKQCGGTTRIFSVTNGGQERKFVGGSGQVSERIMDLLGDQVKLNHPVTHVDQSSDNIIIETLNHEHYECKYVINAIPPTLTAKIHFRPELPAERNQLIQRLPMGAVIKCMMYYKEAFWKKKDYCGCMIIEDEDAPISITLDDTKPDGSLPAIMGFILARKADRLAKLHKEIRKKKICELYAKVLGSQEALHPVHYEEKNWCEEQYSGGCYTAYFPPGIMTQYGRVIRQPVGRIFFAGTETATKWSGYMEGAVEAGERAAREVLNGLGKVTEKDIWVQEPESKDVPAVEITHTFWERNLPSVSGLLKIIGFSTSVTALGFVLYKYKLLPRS
Put plainly: Anti-MAO assay (Amplex Red, p-tyramine). The note with it: for MAO Selectivity Index: IC50 MAO-B/IC50 MAO-A; for IC50: mean ± SD, n = 3. Format: biochemical.

The subject of data set [7] is MAO-B. The note with it: Figure 1; cited from earlier work.
In data set [8] the test system is LSD1. The note with it: Figure 1; cited from earlier work.
Data set [9] has as its system MAO-A. The note with it: Figure 1; cited from earlier work.

What is called IC50 is the point on the concentration scale where inhibition reaches its midpoint. A word on the melting point: it is the temperature, or range, at which the solid turns liquid. For `Cl.NC1CC1c1ccc(NC(=O)c2cccc(-c3ccccc3)c2)cc1` (stereo not shown) [1b, N-(4-(2-Aminocyclopropyl)phenyl)-[1,1′-biphenyl]-3-carboxamide hydrochloride], the melting point is over 250 °C. For the same compound, in data set [1], the “effect on cell viability in U937 cells” value is “the most potent”. This compound registered an IC50 in data set [2] (48 h) of 22800 ± 5100 nM. Further, the midpoint of inhibition in [2] (72 h), the IC50, lay at 9900 ± 1700 nM. In data set [3], half-maximal inhibition (IC50) required 327 ± 28 nM. The compound further returned an IC50 in [4] of 149 ± 43 nM. In addition, the “fold higher potency against LSD1 of meta regioisomer than para counterpart” value in data set [4] (meta vs para) was 1.3 fold. Moreover, in data set [5], the “LSD1 selectivity vs MAO-A” value is recorded as 0.2 and the “LSD1 selectivity vs MAO-B” value came to 2.2. In addition, in data set [6], the “MAO Selectivity Index” value was 11.7 and half-maximal inhibition (IC50) required 28 ± 2 nM.

In the case of `Cl.NC1CC1c1ccc(NC(=O)c2ccc(-c3ccco3)cc2)cc1` (stereo not shown) [2a, N-(4-(2-Aminocyclopropyl)phenyl)-4-(furan-2-yl)benzamide hydrochloride], the IC50 was determined as 73 ± 6 nM in data set [3], 2000 ± 528 nM in [4] and 43 ± 4 nM in [6]. For the same compound, the “MAO Selectivity Index” value in data set [6] amounted to 1.7.

Consider `Cl.NC1CC1c1ccc(NC(=O)c2cccc(-c3ccco3)c2)cc1` (stereo not shown) [2b, N-(4-(2-Aminocyclopropyl)phenyl)-3-(furan-2-yl)benzamide hydrochloride], for which the melting point lay within 208 to 210 °C. Moreover, the “effect on cell viability in U937 cells” value in data set [1] was “almost ineffective”. Also, half-maximal inhibition in data set [2] (48 h) (IC50) was put at 27600 ± 9800 nM. The IC50 in data set [2] (72 h) was 18500 ± 2700 nM. In [3], this compound yielded an IC50 of 888 ± 77 nM. Further, in [4], the IC50 was 110 ± 44 nM. Besides, in data set [5], the “LSD1 selectivity vs MAO-A” value came to 0.8 and the “LSD1 selectivity vs MAO-B” value was 8.1. In data set [6], the “MAO Selectivity Index” value is reported as 9.5 and the IC50 came out at 93 ± 8 nM.

As for `Cl.NC1CC1c1ccc(NC(=O)c2ccc(-c3ccoc3)cc2)cc1` (stereo not shown) [3a, N-(4-(2-Aminocyclopropyl)phenyl)-4-(furan-3-yl)benzamide hydrochloride], the values for the IC50 in [3], in data set [4] and in data set [6] were 93 ± 8 nM, 2340 ± 225 nM and 160 ± 14 nM, respectively. For the same compound, the “MAO Selectivity Index” value in data set [6] is 0.6.

In the case of `Cl.NC1CC1c1ccc(NC(=O)c2cccc(-c3ccoc3)c2)cc1` (stereo not shown) [3b, N-(4-(2-Aminocyclopropyl)phenyl)-3-(furan-3-yl)benzamide hydrochloride], the melting point was in the range of 235 to 238 °C. The “effect on cell viability in U937 cells” value in data set [1] is “the most potent”. In data set [2] (48 h), this compound showed an IC50 of 12400 ± 6100 nM. In data set [2] (72 h), the IC50 came out at 13400 ± 3700 nM. Moreover, in data set [3], the IC50 was 519 ± 36 nM. Further, the half-inhibitory concentration (IC50) in [4] came to 221 ± 23 nM. Besides, in [5], the “LSD1 selectivity vs MAO-A” value was found to be 5.1 and the “LSD1 selectivity vs MAO-B” value is listed as 2.3. For the same compound, in data set [6], the “MAO Selectivity Index” value is 0.5 and half-maximal inhibition (IC50) required 1120 ± 97 nM.

Compound `Cl.NC1CC1c1ccc(NC(=O)c2ccc(-c3cccs3)cc2)cc1` (stereo not shown) [4a, N-(4-(2-Aminocyclopropyl)phenyl)-4-(thiophen-2-yl)benzamide hydrochloride] showed a melting point of over 250 °C. The IC50 in [3] was found to be 32 ± 3 nM. The compound also yielded an IC50 in [4] of 1080 ± 359 nM. Moreover, in data set [6], the “MAO Selectivity Index” value amounted to 1.3 and the concentration for half-maximal inhibition (IC50) was found to be 25 ± 2 nM.

Regarding `Cl.NC1CC1c1ccc(NC(=O)c2cccc(-c3cccs3)c2)cc1` (stereo not shown) [4b, N-(4-(2-Aminocyclopropyl)phenyl)-3-(thiophen-2-yl)benzamide hydrochloride], the melting point lay within 245 to 248 °C. Further, in data set [1], the “effect on cell viability in U937 cells” value is “almost ineffective”. This compound had a half-inhibitory concentration (IC50) in data set [2] (48 h) of 25700 ± 8300 nM. Besides, the IC50 in [2] (72 h) was 15200 ± 3500 nM. In data set [3], the midpoint of inhibition, the IC50, lay at 366 ± 32 nM. The same compound gave an IC50 in data set [4] of 15 ± 3 nM. For the same compound, in data set [5], the “LSD1 selectivity vs MAO-A” value came out at 1.6 and the “LSD1 selectivity vs MAO-B” value turned out to be 24.4. In addition, in [6], the “MAO Selectivity Index” value is 15.3 and half-maximal inhibition (IC50) was put at 24 ± 2 nM.

As to `Cl.NC1CC1c1ccc(NC(=O)c2ccc(-c3ccsc3)cc2)cc1` (stereo not shown) [5a, N-(4-(2-Aminocyclopropyl)phenyl)-4-(thiophen-3-yl)benzamide hydrochloride], the “effect on cell viability in U937 cells” value in data set [1] is given as “the most potent”. For the same compound, the IC50 in data set [2] (48 h) worked out at 26500 ± 4800 nM; in [2] (72 h), 17900 ± 1600 nM; in [3], 67 ± 6 nM; in data set [4], 341 ± 106 nM; in data set [6], 42 ± 4 nM. For the same compound, the “MAO Selectivity Index” value in [6] was determined as 1.6.

On to `Cl.NC1CC1c1ccc(NC(=O)c2cccc(-c3ccsc3)c2)cc1` (stereo not shown) [5b, N-(4-(2-Aminocyclopropyl)phenyl)-3-(thiophen-3-yl)benzamide hydrochloride], for which the melting point was over 250 °C. Further, the “effect on cell viability in U937 cells” value in data set [1] is “the most potent”. This compound also returned an IC50 in data set [2] (48 h) of 32100 ± 7800 nM. Besides, it took 17200 ± 3500 nM to reach half-maximal inhibition in data set [2] (72 h) (IC50). In addition, inhibition in data set [3] was half-maximal at 820 ± 71 nM (IC50). The IC50 in data set [4] stood at 5 ± 0.8 nM. The compound also yielded an IC50 in data set [6] of 28 ± 2 nM.

Compound `Cl.NC1CC1c1ccc(NC(=O)c2ccc(-c3ccncc3)cc2)cc1` (stereo not shown) [6a, N-(4-(2-Aminocyclopropyl)phenyl)-4-(pyridin-4-yl)benzamide hydrochloride] gave a melting point of over 250 °C. The compound also came in with an IC50 in data set [3] of 358 ± 31 nM. Further, in [4], the IC50 is 13900 ± 3060 nM and the “fold drop of anti-LSD1 potency compared with phenyl analogue” value was 73 fold. In [6], the “MAO Selectivity Index” value is given as 5.2 and the midpoint of inhibition, the IC50, lay at 69 ± 6 nM.

With `Cl.NC1CC1c1ccc(NC(=O)c2cccc(-c3ccncc3)c2)cc1` (stereo not shown) [6b, N-(4-(2-Aminocyclopropyl)phenyl)-3-(pyridin-4-yl)benzamide hydrochloride], the melting point is over 250 °C. Further, the IC50 in data set [3] was 10400 ± 300 nM. Further, in [4], half-maximal inhibition (IC50) was put at 572 ± 157 nM and the “fold drop of anti-LSD1 potency compared with phenyl analogue” value turned out to be 4 fold. For the same compound, in data set [5], the “LSD1 selectivity vs MAO-A” value is 0.3 and the “LSD1 selectivity vs MAO-B” value is listed as 18.2. For the same compound, in data set [6], the “MAO Selectivity Index” value was 66 and half-maximal inhibition (IC50) required 159 ± 14 nM.

For `NC1CC1c1ccc(NC(=O)c2ccccc2)cc1` (stereo not shown) [MC2584, reference compound], the values for the 50% inhibitory concentration (IC50) in data set [7], in data set [8] and in [9] were 8980 nM, 19 nM and 31 nM, respectively.
